Test results from ChEMBL document CHEMBL3352537 (Bioorg Med Chem Lett, 2014).

Legend:
[1] = Antioxidant activity assessed as DPPH scavenging activity at 5 to 20 uM after 15 mins by UV-visible spectrophotometry; assay type: physicochemical
[2] = Antioxidant activity assessed as superoxide anion radical scavenging activity at 5 to 20 uM by xanthine/xanthine oxidase assay; assay type: physicochemical
[3] = target: Prostaglandin G/H synthase 1 (Homo sapiens) (UniProt P23219); test: Inhibition of COX1 (unknown origin) using arachidonic acid as substrate at […] after 10 mins by luminometry
[4] = target: Transcription factor p65 (Homo sapiens) (UniProt Q04206); test: Inhibition of LPS-induced NF-kappaB p65 activation in human THP1 cells preincubated at 10 uM for 15 mins before LPS treatment measured after 16 hrs; assay type: cell-based; conditions: THP-1
Transcription factor p65 (Homo sapiens), sequence (Q04206 whole entry): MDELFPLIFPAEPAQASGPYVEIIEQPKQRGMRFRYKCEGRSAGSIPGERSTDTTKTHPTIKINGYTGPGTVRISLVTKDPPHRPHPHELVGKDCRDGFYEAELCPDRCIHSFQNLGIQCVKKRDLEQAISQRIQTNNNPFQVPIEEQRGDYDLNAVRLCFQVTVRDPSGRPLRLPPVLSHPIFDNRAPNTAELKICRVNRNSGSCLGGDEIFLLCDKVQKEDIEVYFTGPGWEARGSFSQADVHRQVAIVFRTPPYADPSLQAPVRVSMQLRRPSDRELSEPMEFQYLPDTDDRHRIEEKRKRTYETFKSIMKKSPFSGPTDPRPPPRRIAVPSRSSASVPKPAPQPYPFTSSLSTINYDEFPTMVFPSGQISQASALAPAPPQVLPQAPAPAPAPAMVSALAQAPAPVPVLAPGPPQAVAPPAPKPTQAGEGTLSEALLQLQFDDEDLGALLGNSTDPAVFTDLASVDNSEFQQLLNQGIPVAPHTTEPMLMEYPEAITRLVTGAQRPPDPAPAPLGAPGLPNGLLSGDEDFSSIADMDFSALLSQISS

Prostaglandin G/H synthase 1 (Homo sapiens), sequence (P23219 whole entry): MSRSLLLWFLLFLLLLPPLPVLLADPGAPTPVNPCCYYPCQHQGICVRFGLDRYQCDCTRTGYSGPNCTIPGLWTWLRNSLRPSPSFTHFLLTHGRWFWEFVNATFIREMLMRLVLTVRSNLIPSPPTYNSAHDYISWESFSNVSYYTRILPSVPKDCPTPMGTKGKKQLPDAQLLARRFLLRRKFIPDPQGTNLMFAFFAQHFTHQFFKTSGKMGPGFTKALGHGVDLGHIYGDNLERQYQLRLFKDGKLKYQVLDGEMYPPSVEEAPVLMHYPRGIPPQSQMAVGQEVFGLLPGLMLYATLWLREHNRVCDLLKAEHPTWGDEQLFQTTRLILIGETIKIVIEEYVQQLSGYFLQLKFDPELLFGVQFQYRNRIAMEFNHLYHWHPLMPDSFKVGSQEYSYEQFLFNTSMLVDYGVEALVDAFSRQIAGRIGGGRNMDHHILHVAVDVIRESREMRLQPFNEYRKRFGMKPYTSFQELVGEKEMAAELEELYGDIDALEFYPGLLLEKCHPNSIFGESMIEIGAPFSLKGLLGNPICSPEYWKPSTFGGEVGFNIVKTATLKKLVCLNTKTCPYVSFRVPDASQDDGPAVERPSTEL

Activity [1]	SMILES	Activity [2] [%]	inhibition [3] [%]	inhibition [4] [%]
Active	COc1cc(C(=O)O)ccc1O [VANILLIC ACID]	–	–	–
Active	O=C(O)c1ccc(O)cc1 [PARABEN]	–	–	–

SMILES	Activity [1]	Activity [2] [%]	inhibition [3] [%]	inhibition [4] [%]
Oc1ccc(CCNCc2ccc(O)c(O)c2)cc1	Active	33	51	23
